Assay results as given in patent US11110102B2, “Antifungal agents used in combination” (Scynexis, Inc., priority 2017, dated 2021).

Assay: Solubility in water
Format: physicochemical
Source text: Each drug was initially diluted in either sterile, distilled water or in DMSO, depending on whether the drug was water-soluble or water-insoluble, respectively.

CC(C)[C@@H](C)[C@@]1(C)CC[C@]2(C)[C@H]3CC[C@@H]4[C@@]5(COC[C@@]4(C)[C@@H](OC[C@](C)(N)C(C)(C)C)[C@H](n4ncnc4-c4ccncc4)C5)C3=CC[C@@]2(C)[C@@H]1C(=O)O [SCY-078, (1S,4aR,6aS,7R,8R,10aR,10bR,12aR,14R,15R)-15-[[(2R)-2-amino-2,3,3-trimethylbutyl]oxy]-8-[(1R)-1,2-dimethylpropyl]-14-[5-(4-pyridinyl)-1H-1,2,4-triazol-1-yl]-1,6,6a,7,8,9,10,10a,10b,11,12,12a-dodecahydro-1,6a,8,10a-tetramethyl-4H-1,4a-propano-2H-phenanthro[1,2-c]pyran-7-carboxylic acid]
Solubility in water: not soluble in water
